Values of other authors, collected in PMC4393105, “tRNA^Glu Increases the Affinity of Glutamyl-tRNA Synthetase for Its Inhibitor Glutamyl-Sulfamoyl-Adenosine, an Analogue of the Aminoacylation Reaction Intermediate Glutamyl-AMP: Mechanistic and Evolutionary Implications” (PLoS ONE, 2015).
Where two headings read alike, the source gives them in different places.

Legend:
PheRS from baker’s yeast = details: read-out: K d aa-AMP aaRS, cited from earlier work
[1] = biological target: ThrRS from yeast mitochodria; design: method as in PMID 22773845; details: read-out: K d aa-AMP aaRS; cited from earlier work
IleRS from E. coli = test system: IleRS from E. coli; design: method as in earlier work; details: reviewed by Fersht, 1998, 48; cited from earlier work

Nc1ncnc2c1ncn2[C@@H]1O[C@H](COP(=O)(O)OC(=O)[C@@H](N)Cc2ccccc2)[C@@H](O)[C@H]1O [Phe-AMP]
Kd (PheRS from baker’s yeast; cognate aa-AMP): 5 nM

Nc1ncnc2c1ncn2C1OC(COS(=O)(=O)NC(=O)[C@@H](N)CO)[C@@H](O)[C@H]1O (some centres unmarked) [Ser-AMS, Seryl-sulfamoyl-adenosine]
Kd [1]: 450 nM

C[C@@H](O)[C@H](N)C(=O)NS(=O)(=O)OC[C@@H]1O[C@H](n2cnc3c(N)ncnc32)[C@@H](O)[C@H]1O [Thr-AMS, Threonyl-sulfamoyl-adenosine]
Kd [1]: 4.5 nM

Nc1ncnc2c1ncn2[C@@H]1O[C@H](COP(=O)(O)OC(=O)[C@@H](N)Cc2ccc(O)cc2)[C@@H](O)[C@H]1O [Tyr-AMP, tyrosyl-AMP]
Kd (PheRS from baker’s yeast; non-cognate aa-AMP): 1000 nM

CC(C)[C@H](N)C(=O)OP(=O)(O)OC[C@H]1O[C@@H](n2cnc3c(N)ncnc32)[C@H](O)[C@@H]1O [Val-AMP, valyl-adenylate]
fold weaker affinity than Ile-AMP (IleRS from E. coli): This IleRS binds Val-AMP with a 150-fold weaker affinity than Ile-AMP.
